Patent US20260347843A1, “NERVOUS SYSTEM DELIVERY ENHANCER” (priority 2022, published 2026)

Columns and labels:
[1] = ASO concentration in spinal cord and left hippocampus after intrathecal administration; format: in vivo; conditions: rat, coadministered with Mapt-targeting ASO of Table 2 (76 nmol, 400 μg per rat), 7 days
Protocol: In this Example, an ASO having the same configuration as the ASO used in Example 3 (the ASO described in Table 2) was used, and a nucleic acid was prepared by the same method as in Example 1.
The intrathecal administration of ASO and the measurement of the ASO concentration were performed by the following methods. A catheter was inserted into the spinal subarachnoid of an 8-week-old Slc:SD rat (male). When the rat was 9 weeks old, ASO and/or TGN-073 in an amount of 76 nmol (400 μg) per rat ([…]) was administered intrathecally. Hereinafter, the rats to which ASO alone was intrathecally administered are referred to as the “ASO single administration group”, and the rats to which ASO and TGN-073 were intrathecally administered together are referred to as the “ASO/TGN-073 coadministration group”. The spinal part and the left hippocampus were extirpated from the rats at 7 days after the intrathecal administration, and the ASO concentration in each tissue was evaluated by the same method as in Example 1.

Malat1 RNA = Malat1 RNA expression level after intraventricular administration (target gene suppression effect); format: in vivo, mouse; conditions: 7 days
Protocol: Seven-week-old female ICR mice anesthetized with 2.5 to 4% isoflurane were fixed to a brain stereotaxic apparatus. Then, skin between the ears was cut open 2 to 3 cm anteroposteriorly, and perforated 1 mm leftward and 0.2 mm posteriorly from the bregma using a 1 mm diameter drill. A Hamilton syringe was filled with the nucleic acid agent. Through the perforated site, a needle was inserted approximately 3 mm deep. The ASO at a dose of 0.95 nmol (5 μg) per mouse was administered into the left lateral ventricle (n=4 to 7/group). The group to which ASO and TGN-073 were coadministered (hereinafter, the group is referred to as the “ASO/TGN-073 coadministration group”) means that ASO mixed with TGN-073 was administered. The group to which only ASO was administered (hereinafter, the group is referred to as the “ASO single administration group”) means that only ASO was administered without being mixed with TGN-073. The dose of TGN-073 in the ASO/TGN-073 coadministration group was 0.25 mg per mouse. After the intraventricular administration, the skin was sutured with a nylon thread. In addition, mice to which only TGN-073 was administered (hereinafter, the mice are referred to as the “TGN-073 administration group”) and mice to which only PBS was administered (hereinafter, the mice are referred to as the “PBS administration group”) were produced as controls.
A left hippocampus was extirpated from each of the mice at 3 hours or 7 days after the intraventricular administration. Using an IsogenI kit (GeneDesign Inc.), RNA was extracted from the left hippocampus extirpated. A cDNA was synthesized using Transcriptor Universal cDNA Master, DNase (Roche Diagnostics) in accordance with the protocol.
Next, quantitative RT-PCR was performed with TaqMan (Roche Applied Science). Primers used in quantitative RT-PCR were products designed and manufactured by Thermo Fisher Scientific Inc. (formerly known as Life Technologies Corp.) on the basis of the various numbers of genes. Amplification conditions (temperature and time) were as follows: one cycle—95 °C for 15 seconds, 60 °C for 30 seconds, and 72 °C for 1 second—was repeated 40 times. The ratio of the expression amount of Malat1 RNA to the expression amount of Actb mRNA (internal standard gene) was calculated, and a value standardized with respect to the value of the PBS-treated group was determined as a relative Malat1 RNA level.
In this Example, the ASO targeted at Malat1, and used in Example 1 (the ASO described in Table 1) was used. Performed in accordance with Example 1 were: the preparation of a nucleic acid; an in vivo experiment; and the evaluation of the intracerebral ASO concentration (the amount of the nucleic acid delivered to the brain); and the target gene suppression effect. […]

[2] = tested on: GFP expression in the central nervous system; experiment: GFP expression from AAV9 vector in hippocampus-level coronal images after intraventricular administration; format: in vivo; conditions: coadministered with AAV9-CMV-hrGFP, TGN-073 250 μg/mouse, 3 weeks
Protocol: In this Example, a GFP expression AAV9 (AAV9-CMV-hrGFP) as an adeno-associated viral (AAV) vector, alone or in combination with TGN-073 (250 μg/mouse), was administered at a dose of 26× 109 vg/mouse to the left lateral ventricle of a 7-week-old ICR mouse (female). Hereinafter, the mice to which only the AAV vector was intraventricularly administered are referred to as the “AAV single administration group”, and the mice to which the AAV vector and TGN-073 were intraventricularly administered together are referred to as the “AAV/TGN-073 coadministration group”. At 3 weeks after the intraventricular administration, the mouse was subjected to perfusion fixation using 4% paraformaldehyde. The mouse was subjected to cryoprotective treatment using a solution of 10% to 30% sucrose dissolved in PBS, and then, a cut-piece having a thickness of 40 μm was produced using a microtome. Using a fluorescence microscope (VHS-7000, Keyence Corporation), the GFP fluorescence (hippocampus-level coronal image) was captured.

O=S(=O)(Nc1ncccc1OCc1ccccc1)c1ccccc1 [TGN-073, N-(3-benzyloxypyridin-2-yl)-benzene-sulfonamide]
ASO concentration in the left hippocampus vs ASO single administration [1]: dramatic increase
ASO concentration in the spinal part vs ASO single administration [1]: dramatic increase
Target gene (Malat1) suppression effect in the hippocampus vs ASO single administration (Malat1 RNA; coadministered with 2′-O-MOE-modified ASO (1.7 nmol, 12.5 μg)): an augmentation of the target gene suppression effect
Target gene (Malat1) suppression effect in the hippocampus vs nucleic acid agent alone (Malat1 RNA; coadministered with ASO, HDO or Chol-HDO (0.95 nmol), any of the groups): marked enhancement
Suppression effect on the Malat1 gene in the hippocampus vs ASO single administration (Malat1 RNA; coadministered with Malat1-targeting ASO (0.95 nmol), TGN-073 0.25 mg per mouse): markedly enhanced
Target gene (Malat1) suppression effect in the lumbar cord portion vs ASO single administration (Malat1 RNA; coadministered with Malat1-targeting ASO (1.7 nmol, 12.5 μg)): marked enhancement
GFP expression amount vs AAV single administration [2]: increase in the expression amount
Range of GFP expression in the central nervous system vs AAV single administration [2]: significantly wide range
